US20160295854A1, “COMPOSITION AND METHOD FOR EX-VIVO IMMUNOMODULATION AND/OR PRESERVATION OF ORGANS, METHODS AND USE” (UNIAO BRASILEIRA DE EDUCACAO E ASSISTENCIA , MANTENEDORA DA …, priority 2014, published 2016)

How the values were obtained:
STAT3 = assay: p-STAT3 intracellular marking in BMDCs; assay type: cell-based, mice (Mus musculus); conditions: BMDCs, 30 μM inhibitor previous to Hsp70
Description: As positive control, the cells were stimulated with […] of phorbol myristate acetate (PMA) for 30 minutes. After the stimuli in the periods mentioned, the cells were fixed with Cytofix Buffer (BD Biosciences) for 10 minutes at 37° C. and permeated with Phosflow Perm Buffer III (BD Biosciences) for 30 minutes on ice. After such procedures, the cells were marked for p-ERK1/2 and p-STAT3.
For analyzing the recipients T cells, the cells were marked for CD4 (GK1.5), CD8a (53-6.7), Foxp3 (MF23), Ki67 (B56) achieved from BD Biosciences. […] The levels of phosphorylated ERK and STAT3 were determined using antibodies for p-ERK1/2 and p-STAT3 (BD Biosciences) in BMDCs previously fixed and permeablized. The cells were subsequently analyzed in the flow cytometer FACSCanto II (BD Biosciences) with the BD FACSDiva (BD Biosciences) program. The data achieved were analyzed with the Flowjo program (version 7.6.5, Tree Star).
The p-ERK expression was measured by flow cytometry. […] The p-STAT3 expression was measured by flow cytometry. […] After that, the IL-10 mRNA levels were measured by Real-time PCR and the concentration of this cytokine by flow cytometry, using the kit CBA Mouse Inflammation. […] After that, the MARCH-I mRNA levels were analyzed by Real-time PCR. […]

splenocytes = assay: Epitopes mapping of T cells (splenocytes re-stimulated in vitro); assay type: cell-based, BALB/c mice; conditions: 5 μg/ml peptide or 60 μg/ml Hsp70, 24 h; for CD4+Foxp3+ (Tregs) cells percentage (FIG. 16 A): compared with DMSO
[1] = tested on: cutaneous allograft (B6 donor skin in BALB/c recipients); assay: Murine model of cutaneous allograft, graft immersion-treatment; assay type: in vivo, mice (Mus musculus)
Excerpt: A method for treating grafts, including allografts, was developed by the inventors of the present invention. Thus, the method treats the grafts (that may be full organs) instead of recipient that will receive the graft, using as tool a classic murine model of skin transplantation and well established. Such method, to the light of the inventors, may be considered as new and inventive. The said model consists of a complete incompatibility of MHC molecules and was described by BILLINGHAM & MEDAWAR (1951).
BALB/c recipients, which express the MHC II I-A^d molecule, are anaesthetized and the dorsal stem hairs are removed. In the waxed area, 1 cm^2 of the skin was removed in each recipient mouse and the donor tail skin was sutured in the exposed area. The animals are maintained in individual cages and daily monitored. The graft rejection is confirmed by observing the cyanosis, erythema, erosion and cutaneous graft loss.
This model consists of a complete incompatibility of MHC molecules and was described by BILLINGHAM & MEDAWAR (1951). In this model, the donor mouse B6, which expresses the MHC II I-A^b molecule, is sacrificed. […] After this period, the grafts were sutured in the BALB/c recipients' back, who express the MHC II I-A^d molecule, and the rejection clinical progression is daily monitored.
After that, the grafts were sutured in the BALB/c (I-Ad) animals' back. The animals were daily monitored. ***, p<0.0001. n=22-24 mice per group. The results achieved putting the seven independent experiments together.
After this, these grafts were sutured in BALB/c recipients WT and their rejection were daily monitored.
After this, the grafts were sutured in the BALB/c (I-Ad) animals' back. The animals were daily monitored. *, p<0.05. n=4 mice per group.

MARCH-I = MARCH-I mRNA in DCs by real time PCR; assay type: cell-based, mice (Mus musculus); conditions: DCs from IL-10 knockout animals, 24 h; compared with DCs WT
Description: The supernatants were collected and used for analyzing cytokine. The cells were further treated with 20 ng/ml of Rapamycin (Cell Signaling), 1 μg/ml of Cyclosporine A (Roche) or 20 ng/ml of IL-10 recombinant murine (R&D System) for 24 h and the total RNA was removed.
The total RNA was isolated from the DCs treated using the kit RNAeasy (Qiagen), according to the manufacturer instructions. The total purified RNA concentration was determined with the kit Qubit® RNA Assay Kit (Invitrogen), read in the Qubit® Fluorometer (Invitrogen). 50 ng of the RNA had reverse transcriptase with 100 U of Sensiscript (Qiagen). DNA concentrations were determined with the kit Qubit® dsDNA HS Assay (Invitrogen), read in the Qubit® Fluorometer (Invitrogen). In a final volume of 10 μL, 8 ng of cDNA were applied using some assays Taqman® Gene Expression (Applied Biosystems): IL10 (Mm00439614_m1), March1 (Mm00613524_m1) and β-actin (4352933E), according to the manufacturer recommendations.
The quantitative real time PCR was performed in the instrument StepOne™ Real-Time PCR System (Applied Biosystems). The relative levels of mRNA were calculated according to the comparative method of Ct, described by […] & LIVAK (2008). The β-actin constituent gene was used as setter. Non-treated DCs served as reference for OVA or Hsp70-treated DCs.
After that, IL-10 mRNA levels were analyzed by Real-time PCR. The β-actin was used as a setter. The IL-10 concentration was measured in the cultures supernatant by flow cytometry. […] (C) As in A, however the MARCH-I mRNA levels were analyzed by Real-time PCR. […] DCs IL-10 KO were also treated with Recombinant IL-10. All treatments were performed for 24 h and MARCH-I mRNA levels were analyzed by Real-time PCR. […] After this period, grafts were sutured in the BALB/c animals' back and the acceptance was daily monitored. Graphs expressed on average ±SEM. *, p<0.05; **, p<0.01; ***, […]. n=3-5 mice per group. Representative results of 3 independent experiments.
After this period, the MARCH-I expression increase was analyzed by Real-time PCR.

[2] = tested on: cutaneous allograft (B6 donor skin in BALB/c recipients); assay: Cutaneous allograft model, graft immersion followed by topic application; assay type: in vivo, mice (Mus musculus); conditions: immersion plus 7 days of topic application (group '- 7 days')
Excerpt: That is, animals that received grafts treated with Hsp70 receive the local application of a Hsp70 solution and the same for OVA.
After this, the grafts were sutured in BALB/c (I-A^d) animals' back. […] The animals were daily monitored. (A) Schematic representation of the treatment strategy used in the experiment. (B) Photographic record of the clinical progression of the acute rejection in groups Hsp70 and OVA. […] Data achieved from previous experiments.

## COc1cccc(-c2cc(=O)c3ccccc3o2)c1N [PD98059, reference compound]
STAT3
  STAT3 activation against the stimulus with Hsp70 after ERK inhibition (FIG. 13 E): removed the STAT3 activation

## KYTAPEISARILMKL (Heat Shock Protein HSP70) [Peptide 5]
splenocytes
  CD4+Foxp3+ (Tregs) cells percentage (FIG. 16 A): increase in the Tregs production

## VGGSTRMPAVTDLVK [Peptide 2]
[1]; 60 μg/ml Hsp70 or 15 μg/ml peptide, 60 minutes at 4° C., compared to OVA peptide and peptide 5
  graft acceptance after immersion with Hsp70 or peptides (FIG. 17): strong tendency in lengthen the graft acceptance
splenocytes
  IL-10 production by splenocytes (FIG. 16 B): small increase
  CD4+Foxp3+ (Tregs) cells percentage (FIG. 16 A): quite significant increase

B1: recombinant murine IL-10: IL-10 recombinant murine (R&D System), positive control (protein, UniProt P18893 19-178, looked up)
Interleukin-10: SRGQYSREDNNCTHFPVGQSHMLLELRTAFSQVKTFFQTKDQLDNILLTDSLMQDFKGYLGCQALSEMIQFYLVEVMPQAEKHGPEIKEHLNSLGEKLKTLRMRLRRCHRFLPCENKSKAVEQVKSDFNKLQDQGVYKAMNEFDIFINCIEAYMMIKMKS
MARCH-I
  MARCH-I mRNA levels in DCs IL-10 KO (FIG. 11 D): reestablished partially

B2: OVA: egg albumin (OVA), control protein (protein, UniProt P01012 2-386, looked up)
Ovalbumin: GSIGAASMEFCFDVFKELKVHHANENIFYCPIAIMSALAMVYLGAKDSTRTQINKVVRFDKLPGFGDSIEAQCGTSVNVHSSLRDILNQITKPNDVYSFSLASRLYAEERYPILPEYLQCVKELYRGGLEPINFQTAADQARELINSWVESQTNGIIRNVLQPSSVDSQTAMVLVNAIVFKGLWEKAFKDEDTQAMPFRVTEQESKPVQMMYQIGLFRVASMASEKMKILELPFASGTMSMLVLLPDEVSGLEQLESIINFEKLTEWTSSNVMEERKIKVYLPRMKMEEKYNLTSVLMAMGITDVFSSSANLSGISSAESLKISQAVHAAHAEINEAGREVVGSAEAGVDAASVSEEFRADHPFLFCIKHIATNAVLFFGRCVSP
[1]; graft immersed in 60 μg/mL for 60 minutes, seven independent experiments
  Survival average: 14.0 days
[2]
  Survival median: 14.0 days
[2]; individual mice
  Survival: 16 days
